# Test results from patent EP0579169B1, “Alkylenediamine derivatives” (NIPPON CHEMIPHAR CO., LTD., priority 1992, dated 1994).
# Key:
# mouse = experiment: Toxicity, LD50 by the up-and-down method; type: in vivo; conditions: i.v.
# From the text: (§1) With respect to toxicity of the compounds of the invention, each LD50 (mg/kg) measured by the up-and-down method is also set forth in Table 1.
# [1] = system: rhythmic bladder contraction; experiment: Test for inhibition of urinating contraction of bladder (rhythmic bladder contraction, anesthetized rat, saline infusion into the closed bladder); type: in vivo; conditions: i.v., urethane-anesthetized male Wistar rat, control (physiological saline) 1.6 min.
# Procedure: (I) Test for Inhibition of Urinating Contraction of Bladder
# With respect to inhibition of the urinating contraction of bladder, performance of the compound of the present invention was evaluated by the following method.
# A male Wistar rat was anesthetized with urethane (1.5 g/kg, s.c.) and fixed on its back on a board. Into the trachea of the rat, a tracheotomy tube was inserted in order to insure an airway, and then midline incisura was carried out to denude the bladder. Subsequently, a small opening was produced on the top of the bladder and the urine was exhausted, and then a polyethylene cannula (diameter: approx. 1 mm) was inserted into the bladder. The urethra and the ureter were tied up to make the bladder a closed system.
# By means of an infusion pump, phsiological saline was poured into the bladder of rat at a rate of 0.05 ml/min. induce the rhythmic bladder contraction. Subsequently, intravesical pressure was measured by a pressure transducer and recorded on a pen-writing recorder. The test compound was dissolved in physiological saline and then administered into the femoral vein through a polyethylene cannula.
# Performance for inhibiting the urinary bladder contraction was evaluated by measuring the period (inhibiting period) in which the rhythmic bladder contraction was inhibited. As the medicament, each of the compounds obtained in Examples was used.
# [2] = Toxicity, LD50 by the up-and-down method; type: in vivo; conditions: mouse, in vivo, iv
# From the text: as §1
# Urinary bladder strips = experiment: Effect on isolated urinary bladder smooth muscle (contraction elicited by acetylcholine or norepinephrine); parameters: species or system male Japanese white rabbits; conditions: rabbit urinary bladder strips, Krebs solution 37°C; pretreatment five minutes before, concentration 1x10^-5 to 3x10^-5 (unit not given)
# Procedure: (II) Effect on Isolated Urinary Bladder Smooth Muscle
# Urinary bladder strips were obtained from male Japanese white rabbits (weight: 2.00-2.80 kg). Each strip was suspended in an organ bath containing Krebs solution. The organ bath was maintained at 37°C and constantly gassed with carbogen. Cumulative concentration-response curves of acetylcholine and norepinephrine were obtained.
# The compound to be tested (compound of Example 2 (i.e., 5-benzyl-3-(3-morpholino-1-phenylpropyl)-1,3-oxazolidin-2-one fumarate) was introduced into the Krebs solution five minutes prior to the introduction of acetylcholine or norepinephrine to elicit the contractive action.
# Therefore, it has been confirmed that the tested compound depresses the bladder contraction not by acting on the peripheral nerves system but on the central nurves system.
structure (smiles),measurement,setting,value
"O=C(O)/C=C/C(=O)O.O=C1OC(Cc2ccccc2)CN1C(CCN1CCOCC1)c1ccccc1 (single isomer, unassigned; (+)) [Example 4, (+)-5-Benzyl-3-(3-morpholino-1-phenylpropyl)-1,3-oxazolidin-2-one fumarate]",LD50/mouse,mouse; fumarate,77 mg/kg
same,Period (inhibiting period in which the rhythmic bladder contraction was inhibited),"[1]; dose 8 mg/kg, fumarate",3.8 min
"O=C1OC(Cc2ccccc2)CN1C(CCN1CCOCC1)c1cccs1 (single isomer, unassigned) [Example 62, 5-Benzyl-3-[3-morpholino-1-(2-thienyl)propyl]-1,3-oxazolidin-2-one]",LD50/mouse,mouse,63 mg/kg
same,Period (inhibiting period in which the rhythmic bladder contraction was inhibited),[1]; dose 6 mg/kg,7.2 min
"CS(=O)(=O)O.O=C1OC(Cc2cccc3ccccc23)CN1C(CCN1CCOCC1)c1ccccc1 (single isomer, unassigned) [Example 46, 5-(1-Naphthyl)methyl-3-(3-morpholino-1-phenylpropyl)-1,3-oxazolidin-2-one mesylate]",LD50,[2],> 20 mg/kg
same,Period (inhibiting period in which the rhythmic bladder contraction was inhibited),[1]; dose 5 mg/kg,6.0 min
"O=C(O)/C=C/C(=O)O.O=C1OC(Cc2ccccc2)CN1C(CCN1CCOCC1)c1ccccc1 (single isomer, unassigned; (-)) [Example 3, (-)-5-Benzyl-3-(3-morpholino-1-phenylpropyl)-1,3-oxazolidin-2-one fumarate]",LD50/mouse,mouse; fumarate,49 mg/kg
same,Period (inhibiting period in which the rhythmic bladder contraction was inhibited),"[1]; dose 8 mg/kg, fumarate",6.0 min
"O=C(O)/C=C/C(=O)O.O=C1OC(CCc2ccccc2Br)CN1C(CCN1CCOCC1)c1ccccc1 (single isomer, unassigned) [Example 25, 5-[2-(2-bromophenyl)ethyl]-3-(3-morpholino-1-phenylpropyl)-1,3-oxazolidin-2-one fumarate]",LD50,[2],79 mg/kg
same,Period (inhibiting period in which the rhythmic bladder contraction was inhibited),[1]; dose 8 mg/kg,7.5 min
"O=C(O)/C=C/C(=O)O.O=C1OCC(Cc2ccccc2)N1C(CCN1CCOCC1)c1ccccc1 (single isomer, unassigned) [Example 69, 4-Benzyl-3-(3-morpholino-1-phenylpropyl)-1,3-oxazolidin-2-one fumarate]",LD50,[2],76 mg/kg
same,Period (inhibiting period in which the rhythmic bladder contraction was inhibited),[1]; dose 8 mg/kg,6.6 min
"O=C(O)/C=C/C(=O)O.O=C1OC(CCc2ccccc2)CN1C(CCN1CCOCC1)c1ccccc1 (single isomer, unassigned) [Example 50, 3-(3-Morpholino-1-phenylpropyl)-5-(2-phenylethyl)-1,3-oxazolidin-2-one fumarate]",LD50,[2],45 mg/kg
same,Period (inhibiting period in which the rhythmic bladder contraction was inhibited),[1]; dose 5 mg/kg,7.5 min
"CC(C)CC1COC(=O)N1C(CCN1CCOCC1)c1ccccc1.O=C(O)/C=C/C(=O)O (single isomer, unassigned) [Example 67, 4-Isobutyl-3-(3-morpholino-1-phenylpropyl)-1,3-oxazolidin-2-one fumarate]",LD50,[2],137 mg/kg
same,Period (inhibiting period in which the rhythmic bladder contraction was inhibited),[1]; dose 14 mg/kg,3.5 min
"O=C(O)/C=C/C(=O)O.O=C1OC(Cc2ccccc2Br)CN1C(CCN1CCOCC1)c1ccccc1 (single isomer, unassigned) [Example 13, 5-(2-Bromophenyl)methyl-3-(3-morpholino-1-phenylpropyl)-1,3-oxazolidin-2-one fumarate]",LD50,[2],48 mg/kg
same,Period (inhibiting period in which the rhythmic bladder contraction was inhibited),[1]; dose 5 mg/kg,6.5 min
"O=C1OC(Cc2ccccc2)CN1C(CCN1CCOCC1)c1cccs1 (single isomer, unassigned) [Example 61, 5-Benzyl-3-[3-morpholino-1-(2-thienyl)propyl]-1,3-oxazolidin-2-one]",LD50,[2],59 mg/kg
same,Period (inhibiting period in which the rhythmic bladder contraction was inhibited),[1]; dose 6 mg/kg,6.5 min
"O=C(O)/C=C/C(=O)O.O=C1OC(Cc2cccs2)CN1C(CCN1CCOCC1)c1ccccc1 (single isomer, unassigned) [Example 55, 3-(3-Morpholino-1-phenylpropyl)-5-(2-thenyl)-1,3-oxazolidin-2-one fumarate]",LD50,[2],84 mg/kg
same,Period (inhibiting period in which the rhythmic bladder contraction was inhibited),[1]; dose 8 mg/kg,4.6 min
"O=C(O)/C=C/C(=O)O.O=C1OC(Cc2cccs2)CN1C(CCN1CCOCC1)c1ccccc1 (single isomer, unassigned) [Example 56, 3-(3-Morpholino-1-phenylpropyl)-5-(2-thenyl)-1,3-oxazolidin-2-one fumarate]",LD50/mouse,mouse; fumarate,111 mg/kg
same,Period (inhibiting period in which the rhythmic bladder contraction was inhibited),[1]; dose 11 mg/kg,4.7 min
"O=C(O)/C=C/C(=O)O.O=C1OC(Cc2ccccc2)CN1C(CCN1CCOCC1)c1ccccc1 (single isomer, unassigned) [Example 2, 5-Benzyl-3-(3-morpholino-1-phenylpropyl)-1,3-oxazolidin-2-one fumarate]",action on the contraction caused by acetylcholine,Urinary bladder strips,did not give any effective action
same,action on the contraction caused by norepinepherine,Urinary bladder strips,did not give any effective action
same,LD50,[2],76 mg/kg
same,Period (inhibiting period in which the rhythmic bladder contraction was inhibited),"[1]; dose 8 mg/kg, fumarate",5.4 min
"O=C(O)/C=C/C(=O)O.O=C1OC(CCc2ccccc2Cl)CN1C(CCN1CCOCC1)c1ccccc1 (single isomer, unassigned) [Example 27, 5-[2-(2-Chlorophenyl)ethyl]-3-(3-morpholino-1-phenylpropyl)-1,3-oxazolidin-2-one fumarate]",LD50,[2],75 mg/kg
same,Period (inhibiting period in which the rhythmic bladder contraction was inhibited),[1]; dose 8 mg/kg,8.0 min
"O=C(O)/C=C/C(=O)O.O=C1COC(Cc2ccccc2Br)CN1C(CCN1CCOCC1)c1ccccc1 (single isomer, unassigned) [Example 70, 2-(2-Bromobenzyl)-4-(3-morpholino-1-phenylpropyl)-5-morpholinone fumarate]",LD50,[2],> 60 mg/kg
same,Period (inhibiting period in which the rhythmic bladder contraction was inhibited),[1]; dose 6 mg/kg,1.5 min
